Assay results from patent publication US10370385B2, “Tricyclic mosquitocides and methods of making and using thereof” (The Arizona Board of Regents on Behalf of the University of …, priority 2014, dated 2019).

Experiments:
[1] = tested on: Aedes aegypti (Rockefeller strain) mosquitoes; assay: Microinjection into female mosquitoes before blood feeding; observation for defective phenotypes (midgut, blood meal storage); assay type: in vivo; settings: 200 nL of 5.0 mM compound in 5% DMSO microinjected into four day old females; fed human blood one day later
Experimental: Aedes aegypti (Rockefeller strain) mosquitoes were reared in standard conditions. Four day old female mosquitoes were microinjected with 200 nL of 5% DMSO (control) or the compound described in Example 1, i.e. 4-isopropyl-8-phenyl-1,3,4,6,6a,9b-hexahydrothiopyrano [3,4-e]isoindole-7,9(8H,9aH)-dione (5.0 mM in 5% DMSO), using Nanoject II (Drummond). The injected mosquitoes were recovered for one day in the environmental chamber and fed on warmed human blood through a membrane feeder. Twenty fully fed mosquitoes from each group were observed under a dissecting microscope for defective phenotypes, including midgut and primary follicle development in the ovaries during the first gonotrophic cycle.

[2] = tested on: mosquito larvae (second instar); assay: Evaluation of mosquito larval mortality; assay type: in vivo, Aedes aegypti; settings: 0.2 mM in larval growth media, 24 hours of exposure
Experimental: Two-day-old second instar larvae were transferred to wells in a plate containing 1 ml of larval growth media. The 4-isopropyl-8-phenyl-1,3,4,6,6a,9b-hexahydrothiopyrano [3,4-e]isoindole-7,9(8H,9aH)-dione and DMSO (control) were added directly to the media and swirled. The final concentration of the 4-isopropyl-8-phenyl-1,3,4,6,6a,9b-hexahydrothiopyrano [3,4-e]isoindole-7,9(8H,9aH)-dione in each well was 0.2 mM, the DMSO concentration was 0.2%. The plates were kept in the environmental chamber. Mosquito larvae were examined under a microscope for any sign of mortality 24 hours after exposure. Data obtained from at least three biological replicates were statistically analyzed with the Bonferroni post tests.

blood-fed mosquitoes = assay: Evaluation of follicle size after microinjection into blood-fed mosquitos; assay type: in vivo, Aedes aegypti; settings: 200 nl of 0.7 mM compound microinjected one hour after blood feeding; ovaries dissected 48 h post blood meal; DMSO control 452.8±6.4 μm
Experimental: The mosquitos were reared in environmental chambers. Larvae were then fed with a mixture of tropical flakes, rat chow, liver powder, or cat food pellets. Adult pests were maintained on 10% sucrose. Four-day old mosquitos were allowed to feed on human blood supplemented with fresh ATP. One hour after blood feeding, the mosquitos were briefly chilled at 4° C. to immobilize. 200 nl of the compound, 4-isopropyl-8-phenyl-1,3,4,6,6a,9b-hexahydrothiopyrano [3,4-e]isoindole-7,9(8H,9aH)-dione, was diluted in water to a final concentration of 0.7 mM before use. Then the compound was microinjected with a microinjector into fully fed mosquitos. For each experiment, the mosquitos were also microinjected with 2% DMSO (control). Mosquitos were allowed to feed 10% sucrose, and 48 h post blood meal, ovaries were dissected from the injected mosquitos in 1×PBS under a microscope. Ovaries were teased to separate follicles, and the images were digitally captured for follicle length measurement.

For `CC(C)[C@@H]1CSC[C@@H]2C1=CC[C@@H]1C(=O)N(c3ccccc3)C(=O)[C@@H]12` [4-isopropyl-8-phenyl-1,3,4,6,6a,9b-hexahydrothiopyrano [3,4-e]isoindole-7,9(8H,9aH)-dione], the “blood-fed mosquitoes exhibiting the defect in the alimentary canal (blood meal misdirected into the ventral diverticulum)” value [1] was 40%, the “number of mosquito larvae died” value [2] was 18 out of 45 mosquito larvae and the mosquito larvae died ([2]; all control larvae survived) was 40%. For the same molecule, the follicle size (blood-fed mosquitoes) was 145.6±11.0 μm.
